Five compounds from patent US20110070232A1, “Combination Therapy with an Antitumor Alkaloid” (Pharma Mar, S.A., priority 2008, published 2011) can be followed below.

≈ marks a conversion by molar mass, not a printed value. Where two headings read alike, the source gives them in different places.

For experiment [1], the system named is HGC-27 human gastric carcinoma cell line. Briefly: IC50 determination, MTS assay, 72 h (Example 1). In kind it is cell-based. The following applies: 72 hours of drug exposure. Summed up:
(§1)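 Cells are seeded at 10,000 per well and allowed to attach for 24 h, then exposed to compound for 72 h. Viability is read by MTS/PMS, 4 h at 37 °C, with OD at 490 nm, and referenced to a time-0 plate. IC50 is averaged from two to four assays.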
Background: Formazan colour is commonly taken as a measure of viable cells.

For experiment [2], the system named is Hs746T human gastric carcinoma cell line. The experiment can be described thus: IC50 determination, MTS assay, 72 h (Example 1). It is filed as cell-based. The conditions noted are these: 72 hours of drug exposure. Summed up:
as §1

Experiment [3] relates to AGS human gastric carcinoma cell line. Briefly: IC50 determination, MTS assay, 72 h (Example 1). In kind it is cell-based. The conditions noted are these: 72 hours of drug exposure. Summed up: as §1
Experiment [4] concerns NCI-H460 (lung cancer) cell line. Briefly: IC50 determination, MIT (tetrazolium) assay, 72 h (Example 18). In kind it is cell-based, human. The following applies: NCI-H460, 72 hours of drug exposure. The method, then:
(§2) Before plating, cell cultures were trypsinized and cell number estimated using an automated flow cytometer.
(§3) Cells were harvested and seeded in 96 well microtiter plates at the appropriate cell density (5,000-10,000 cells) in 150 μL of media and incubated for 24 hours to allow the cells to attach before drug addition.
(§4) After the incubation period (72 hours), 50 μL of MIT solution was added to each microtiter well and incubated for further 8 hours at 37° C. The culture medium was then removed and 50 μl, of DMSO were added to dissolve the MIT crystals. Optical densities were read at 540 nm on spectrophotometer microplate reader.
(§5) IC50 values were calculated from an average of two to four assays for each of the test agents.

The test system of experiment [5] is A-549 (lung cancer) cell line. The description is as above. It is filed as cell-based, human. The method, then: as §2, §3, §4, §5
For experiment [6], the system named is NCI-H23 (lung cancer) cell line. The description is as above. It is filed as cell-based, human. The conditions noted are these: NCI-H23, 72 hours of drug exposure. The method, then:
NCI-H23 cells were grown in RPMI supplemented with 10% Fetal Bovine Serum (FBS), 1% penicillin/streptomycin and 2 mM L-glutamine.
as §2, §3, §4, §5

Experiment [7] relates to UM-UC-3 human bladder carcinoma cell line. Briefly: IC50 determination, MTS assay, 72 h (Example 2). It is filed as cell-based. How it is done:
(§6) The following agents were evaluated in combination with PM00104: gemcitabine (Gemzar®) and cisplatin. The human bladder carcinoma cell lines selected for this assay were the following: 5637 and UM-UC-3 cell lines. 5637 cell line was grown in RPMI 1640 medium supplemented with 10% FBS, 1.5 g/L sodium bicarbonate, 4.5 g/L glucose, 10 mM HEPES, 1 mM sodium pyruvate, and 2 mM L-glutamine. UM-UC-3 cell line was grown in MEM Eagle's medium supplemented with 10% FBS and 2 mM L-glutamine.
(§7) a. […] It was used the same methodology as those disclosed in Example 1.
(§8) IC50 values were calculated from an average of three to four assays for each of the test agents.

Experiment [8] deals with 5637 human bladder carcinoma cell line. The experiment can be described thus: IC50 determination, MTS assay, 72 h (Example 2). In kind it is cell-based. The conditions noted are these: 72 hours of drug exposure. How it is done: as §6, §7, §8
Experiment [9] concerns Hs746T tumors. In kind it is in vivo, mice. The conditions noted are these: mg/kg/day: PM00104 0.90 IV, cisplatin 5 IP, paclitaxel 10 IP. The source says: Female athymic nude mice (Harlan Sprague Dawley, Madison, Wis.) were utilized for all experiments. Animals were housed in ventilated rack caging with food and water ad libitum. The mice were acclimated for at least 5 days prior to tumor implantation with a tumor cell suspension. The Vehicle Control group contained 11 mice, groups 2-4 contained 7 mice and the rest of groups contained 8 mice.
The tumor model used in these studies was Hs746T cell line, which was obtained from the ATCC (Manassas, Va.).
Hs746T cells were grown in DMEM supplemented with 10% FBS, 1.5 g/L sodium bicarbonate, 4.5 g/L glucose, and 4 mM L-glutamine. Each animal was implanted SC on the right flank, using a trochar, with 5×10^6 Hs746T cells, from in vitro passage 18, in a 0.2 mL suspension of 50% Matrigel and 50% serum free medium, without antibiotics. Bacterial cultures were performed on aliquots of the cells prepared for implantation.
Treatments were initiated on DPI 16.
(§9) Tumor size measurements were recorded twice weekly from the treatment initiation until the termination of the study.
(§10) Mean, standard deviation and standard error of the mean were determined for tumor volume for all animal groups at all assessments. Student's t test was performed on tumor volumes at each measurement day, including at the end of the study, to determine whether there were any statistically significant differences between combination treatment groups and single monotherapy treatment groups.

Experiment [10] deals with BxPC-3 tumors. In kind it is in vivo, mice. The conditions noted are these: mg/kg/day: PM00104 0.90 IV, gemcitabine 180 IP. The method, then: Female CB17.SCID mice (Charles River Lab.) were utilized for all experiments. Animals were housed in ventilated rack caging with food and water ad libitum. The mice were acclimated for at least 5 days prior to tumor implantation with a tumor cell suspension.
The tumor model used in these studies was BxPC-3 cell line, which was obtained from the ATCC (Manassas, Va.).
Bacterial cultures were performed on aliquots of the cells prepared for implantation.
Treatments were initiated on DPI 14.
as §9, §10

[11] abbreviates: Homo sapiens, UMUC3, 72 hours of drug exposure, read-out: IC50.

What is called IC50 is the concentration needed to halve the response being measured. Consider `O=c1[nH]cc(F)c(=O)[nH]1` [5-FU, 5-fluorouracil], for which the IC50 is 0.434 µg/mL (≈ 3.34 µM) in experiment [1] (Homo sapiens, read-out: IC50); 5.46 µg/mL (≈ 42 µM) in [2] (Homo sapiens, read-out: IC50); 0.532 µg/mL (≈ 4.09 µM) in experiment [3] (Homo sapiens, read-out: IC50).
What is called % Inhibition is the relative decrease from the control value, in per cent. As to `N.N.[Cl][Pt][Cl]` [Cisplatin, cisplatin], the IC50 in [1] came out at 25.6 µg/mL; in experiment [2], 39.2 µg/mL; in experiment [3] it was 25.5 µg/mL; in experiment [4], 25000 nM; in experiment [5] (A-549, 72 hours of drug exposure), 50000 nM; in experiment [6] it was 10000 nM. The IC50 came to 0.53 µg/mL in experiment [7] (72 hours of drug exposure) and 2.4 µg/mL in [8]. Also, the “% Inhibition” value in [9] (day 16) worked out at 3.2%; in experiment [9] (day 20) it was 39.5%; in [9] (day 23) it was 48.3%; in experiment [9] (day 26), 55.8%; in experiment [9] (day 29), 56.7%; in [9] (day 33), 53.3%. The “% Inhibition” value in experiment [9] (day 36) turned out to be 53.7%. In addition, the “% T/C on day” value in experiment [9] (day 16) stood at 96.8%; in [9] (day 20), 60.5%; in experiment [9] (day 23) it was 51.7%; in experiment [9] (day 26), 44.2%; in experiment [9] (day 29) it was 43.3%; in experiment [9] (day 33) it was 46.7%. In addition, the “% T/C on day” value in experiment [9] (day 36) came out at 46.3%.
For `Nc1ccn([C@@H]2O[C@H](CO)[C@@H](O)C2(F)F)c(=O)n1` [Gemcitabine, gemcitabine], the “% Inhibition” value was 3.1% in experiment [10] (day 14); −44.6% in experiment [10] (day 16); −15.6% in experiment [10] (day 19); 25.5% in [10] (day 22); −6.1% in experiment [10] (day 26); 20.7% in [10] (day 29). For the same compound, the “% Inhibition” value was 31.3% in experiment [10] (day 34) and −33.9% in [10] (day 40). Further, the “% T/C on day” value in [10] (day 14) amounted to 96.9%; in experiment [10] (day 16), 144.6%; in experiment [10] (day 19), 115.6%; in experiment [10] (day 22), 74.5%; in [10] (day 26), 106.1%; in experiment [10] (day 29) it was 79.3%. The “% T/C on day” value in experiment [10] (day 34) came to 68.7%; in [10] (day 40), 133.9%. The 50% inhibitory concentration (IC50) in [4] (Homo sapiens) was 1 nM; in experiment [5] (Homo sapiens, A549, 72 h) it was 0.5 nM; in experiment [6] (Homo sapiens), 0.28 nM; in experiment [7] (setting [11]), 0.022 µg/mL; in [8] (Homo sapiens, read-out: IC50), 0.019 µg/mL.
`COc1c(C)cc2c(c1O)[C@@H]1[C@@H]3Cc4c(OC(C)=O)c(C)c5c(c4[C@H](CNC(=O)/C=C/c4cccc(C(F)(F)F)c4)N3[C@@H](O)[C@H](C2)N1C)OCO5` [PM00104]: the “% Inhibition” value in experiment [10] (day 14) is −0.9%; in [10] (day 16), −40.3%; in experiment [10] (day 19), −26.1%; in [10] (day 22), −16.5%; in experiment [10] (day 26), 7.8%; in experiment [10] (day 29), −6.3%. Also, the “% Inhibition” value is −16.8% in experiment [10] (day 34); −26.3% in experiment [10] (day 40); 2.0% in experiment [9] (day 16); 34.4% in experiment [9] (day 20); 49.7% in experiment [9] (day 23); 57.2% in [9] (day 26). Also, the “% Inhibition” value in [9] (day 29) was 59.1%; in [9] (day 33), 49.8%; in [9] (day 36), 31.4%. The “% T/C on day” value is listed as 100.9% in experiment [10] (day 14); 140.3% in experiment [10] (day 16); 126.1% in experiment [10] (day 19); 116.5% in experiment [10] (day 22); 92.2% in experiment [10] (day 26); 106.3% in experiment [10] (day 29). Besides, the “% T/C on day” value in [10] (day 40) is 126.3%; in experiment [9] (day 16), 98.0%; in experiment [9] (day 20) it was 65.6%; in [9] (day 23), 50.3%; in experiment [9] (day 26), 42.8%; in experiment [9] (day 29), 40.9%. The “% T/C on day” value in experiment [9] (day 33) is 50.2%; in experiment [9] (day 36), 68.6%. Moreover, the IC50 in [1] (Homo sapiens, read-out: IC50) came out at 0.00371 µg/mL (≈ 0.00523 µM); in experiment [2] (Homo sapiens, read-out: IC50), 0.00534 µg/mL (≈ 0.00752 µM); in experiment [3] (Homo sapiens, read-out: IC50), 0.00521 µg/mL (≈ 0.00734 µM); in [4] (Homo sapiens) it was 7.2 nM; in experiment [5] (Homo sapiens, A549, 72 h), 7.2 nM; in experiment [6] (Homo sapiens), 5 nM. Besides, the IC50 in experiment [7] (setting [11]) was 0.0069 µg/mL; in [8] (Homo sapiens, read-out: IC50), 0.0056 µg/mL.
Regarding `CC(=O)O[C@H]1C(=O)[C@@]2(C)[C@H]([C@H](OC(=O)c3ccccc3)[C@]3(O)C[C@H](OC(=O)[C@H](O)[C@@H](NC(=O)c4ccccc4)c4ccccc4)C(C)=C1C3(C)C)[C@]1(OC(C)=O)CO[C@@H]1C[C@@H]2O` [paclitaxel], the IC50 in experiment [4] (Homo sapiens) came to 12 nM; in [5] (Homo sapiens, A549, 72 h) it was 47 nM; in experiment [6] (Homo sapiens), 47 nM. The “% Inhibition” value in experiment [9] (day 16) is recorded as 3.6%; in experiment [9] (day 20) it was 36.7%; in experiment [9] (day 23), 52.3%; in [9] (day 26), 65.3%; in [9] (day 29), 78.6%; in experiment [9] (day 33), 76.8%. Moreover, the “% Inhibition” value in experiment [9] (day 36) amounted to 69.9%. For the same compound, the “% T/C on day” value in [9] (day 16) was determined as 96.4%; in experiment [9] (day 20) it was 63.3%; in [9] (day 23), 47.7%; in experiment [9] (day 29), 21.4%; in [9] (day 33) it was 23.2%; in [9] (day 36) it was 30.1%.
